In US10925283B2, “Microbiocidal phenylamidine derivatives” (SYNGENTA PARTICIPATIONS AG, priority 2016, dated 2021):

Assays:
Type in all cases: in vivo
[1] = test system: Puccinia recondita f. sp. tritici; test: Puccinia recondita f. sp. tritici / wheat / leaf disc preventative (brown rust); conditions: foliar, wheat leaf segments cv. Kanzler, inoculated 1 day after application, assessed 7-9 days after application, read-out: control of Puccinia recondita f. sp. tritici (percent disease control compared to untreated)
Protocol: Puccinia recondita f. Sp. Tritici/Wheat/Leaf Disc Preventative (Brown Rust) Wheat leaf segments cv. Kanzler are placed on agar in multiwell plates (24-well format) and sprayed with the formulated test compound diluted in water. The leaf disks are inoculated with a spore suspension of the fungus 1 day after application. The inoculated leaf segments are incubated at 19° C. and 75% rh under a light regime of 12 h light/12 h darkness in a climate cabinet and the activity of a compound is assessed as percent disease control compared to untreated when an appropriate level of disease damage appears in untreated check leaf segments (7-9 days after application).

[2] = test system: Blumeria graminis f. sp. tritici (Erysiphe graminis f. sp. tritici); test: Blumeria graminis f. sp. tritici / wheat / leaf disc preventative (powdery mildew on wheat); conditions: foliar, wheat leaf segments cv. Kanzler, inoculated 1 day after application, assessed 6-8 days after application, read-out: control of Blumeria graminis f. sp. tritici (percent disease control compared to untreated)
Protocol: Blumeria graminis f. sp. tritici (Erysiphe graminis f. sp. tritici)/Wheat/Leaf Disc Preventative (Powdery Mildew on Wheat) Wheat leaf segments cv. Kanzler are placed on agar in a multiwell plate (24-well format) and sprayed with the formulated test compound diluted in water. The leaf disks are inoculated by shaking powdery mildew infected plants above the test plates 1 day after application. The inoculated leaf disks are incubated at 20° C. and 60% rh under a light regime of 24 h darkness followed by 12 h light/12 h darkness in a climate chamber and the activity of a compound is assessed as percent disease control compared to untreated when an appropriate level of disease damage appears on untreated check leaf segments (6-8 days after application).

[3] = test system: Puccinia recondita f. sp. tritici; test: Puccinia recondita f. sp. tritici / wheat / leaf disc curative (brown rust); conditions: foliar, wheat leaf segments cv. Kanzler, compound applied 1 day after inoculation, assessed 6-8 days after application, read-out: control of Puccinia recondita f. sp. tritici (percent disease control compared to untreated)
Protocol: Puccinia recondita f. Sp. Tritici/Wheat/Leaf Disc Curative (Brown Rust) Wheat leaf segments cv. Kanzler are placed on agar in multiwell plates (24-well format). The leaf segments are inoculated with a spore suspension of the fungus. Plates are stored in darkness at 19° C. and 75% rh. The formulated test compound diluted in water is applied 1 day after inoculation. The leaf segments are incubated at 19° C. and 75% rh under a light regime of 12 h light/12 h darkness in a climate cabinet and the activity of a compound is assessed as percent disease control compared to untreated when an appropriate level of disease damage appears in untreated check leaf segments (6-8 days after application).

| Compound | pest or weed control at 200 ppm [1] | pest or weed control at 200 ppm [2] | pest or weed control at 200 ppm [3] |
| --- | --- | --- | --- |
| CCN(C)/C=N/c1cc(OC)c(C(O)(COCCON=C(C)C)C(F)(F)F)cc1C (stereo not drawn) [E.016, N-ethyl-N′-[5-methoxy-2-methyl-4-[2,2,2-trifluoro-1-hydroxy-1-[2-(isopropylideneamino)oxyethoxymethyl]ethyl]phenyl]-N-methyl-formamidine] | ≥ 80% | ≥ 80% | ≥ 80% |
| CCCSCC(O)(c1cc(C)c(/N=C/N(C)CC)cc1OC)C(F)(F)F (stereo not drawn) [E.062, N-ethyl-N′-[5-methoxy-2-methyl-4-[2,2,2-trifluoro-1-hydroxy-1-(propylsulfanylmethyl)ethyl]phenyl]-N-methyl-formamidine] |  | ≥ 80% | ≥ 80% |
| CCN(C)/C=N/c1cc(OC)c(C(O)(C2CCS(=O)(=O)CC2)C(F)(F)F)cc1C (stereo not drawn) [E.076, N′-[4-[1-(1,1-dioxothian-4-yl)-2,2,2-trifluoro-1-hydroxy-ethyl]-5-methoxy-2-methyl-phenyl]-N-ethyl-N-methyl-formamidine] |  |  | ≥ 80% |
| CCN(C)/C=N/c1cc(OC)c(C(O)(COCCc2ccc(F)cc2)C(F)(F)F)cc1C (stereo not drawn) [E.026, N-ethyl-N′-[5-methoxy-2-methyl-4-[2,2,2-trifluoro-1-[2-(4-fluorophenyl)ethoxymethyl]-1-hydroxy-ethyl]phenyl]-N-methyl-formamidine] | ≥ 80% | ≥ 80% | ≥ 80% |
| CCN(C)/C=N/c1cc(OC)c(C(O)(COCCOC)C(F)(F)F)cc1C (stereo not drawn) [E.012, N-ethyl-N′-[5-methoxy-2-methyl-4-[2,2,2-trifluoro-1-hydroxy-1-(2-methoxyethoxymethyl)ethyl]phenyl]-N-methyl-formamidine] | ≥ 80% | ≥ 80% | ≥ 80% |
| CCN(C)/C=N/c1cc(OC)c(C(O)(COCC2(c3ccc(Cl)cc3)CC2)C(F)(F)F)cc1C (stereo not drawn) [E.007, N′-[4-[1-[[1-(4-chlorophenyl)cyclopropyl]methoxymethyl]-2,2,2-triﬂuoro-1-hydroxy-ethyl]-5-methoxy-2-methyl-phenyl]-N-ethyl-N-methyl-formamidine] | ≥ 80% | ≥ 80% | ≥ 80% |
| CCCC1OCC(C)(COCC(O)(c2cc(C)c(/N=C/N(C)CC)cc2OC)C(F)(F)F)CO1 (stereo not drawn) [E.001, N-ethyl-N′-[5-methoxy-2-methyl-4-[2,2,2-trifluoro-1-hydroxy-1-[(5-methyl-2-propyl-1,3-dioxan-5-yl)methoxymethyl]ethyl]phenyl]-N-methyl-formamidine] | ≥ 80% | ≥ 80% | ≥ 80% |
| CCN(C)/C=N/c1cc(OC)c(C(O)(COC2CCc3ccccc32)C(F)(F)F)cc1C (stereo not drawn) [E.005, N-ethyl-N′-[5-methoxy-2-methyl-4-[2,2,2-trifluoro-1-hydroxy-1-(indan-1-yloxymethyl)ethyl]phenyl]-N-methyl-formamidine] | ≥ 80% | ≥ 80% | ≥ 80% |
| CCN(C)/C=N/c1cc(OC)c(C(O)(COC2Cc3ccccc3C2)C(F)(F)F)cc1C (stereo not drawn) [E.010, N-ethyl-N′-[5-methoxy-2-methyl-4-[2,2,2-trifluoro-1-hydroxy-1-(indan-2-yloxymethyl)ethyl]phenyl]-N-methyl-formamidine] | ≥ 80% | ≥ 80% | ≥ 80% |
| CCN(C)/C=N/c1cc(OC)c(C(O)(COCCc2ccc(OC)c(OC)c2)C(F)(F)F)cc1C (stereo not drawn) [E.022, N′-[4-[1-[2-(3,4-dimethoxyphenyl)ethoxymethyl]-2,2,2-trifluoro-1-hydroxy-ethyl]-5-methoxy-2-methyl-phenyl]-N-ethyl-N-methyl-formamidine] |  | ≥ 80% | ≥ 80% |
| CCN(C)/C=N/c1cc(OC)c(C(O)(CS(=O)(=O)CC)C(F)(F)F)cc1C (stereo not drawn) [E.067, N-ethyl-N′-[4-[1-(ethylsulfonylmethyl)-2,2,2-trifluoro-1-hydroxy-ethyl]-5-methoxy-2-methyl-phenyl]-N-methyl-formamidine] | ≥ 80% | ≥ 80% | ≥ 80% |
| CCN(C)/C=N/c1cc(OC)c(C(O)(COCc2ccccc2C)C(F)(F)F)cc1C (stereo not drawn) [E.029, N-ethyl-N′-[5-methoxy-2-methyl-4-[2,2,2-trifluoro-1-hydroxy-1-(o-tolylmethoxymethyl)ethyl]phenyl]-N-methyl-formamidine] | ≥ 80% | ≥ 80% | ≥ 80% |
| CCC1OCC(C)(COCC(O)(c2cc(C)c(/N=C/N(C)CC)cc2OC)C(F)(F)F)CO1 (stereo not drawn) [E.017, N-ethyl-N′-[4-[1-[(2-ethyl-5-methyl-1,3-dioxan-5-yl)methoxymethyl]-2,2,2-trifluoro-1-hydroxy-ethyl]-5-methoxy-2-methyl-phenyl]-N-methyl-formamidine] | ≥ 80% | ≥ 80% | ≥ 80% |
| CCC1CCC(OCC(O)(c2cc(C)c(/N=C/N(C)CC)cc2OC)C(F)(F)F)CC1 (stereo not drawn) [E.033, N-ethyl-N′-[4-[1-[(4-ethylcyclohexoxy)methyl]-2,2,2-trifluoro-1-hydroxy-ethyl]-5-methoxy-2-methyl-phenyl]-N-methyl-formamidine] | ≥ 80% | ≥ 80% | ≥ 80% |
| CCN(C)/C=N/c1cc(OC)c(C(O)(COCc2cccc(C)c2)C(F)(F)F)cc1C (stereo not drawn) [E.035, N-ethyl-N′-[5-methoxy-2-methyl-4-[2,2,2-trifluoro-1-hydroxy-1-(m-tolylmethoxymethyl)ethyl]phenyl]-N-methyl-formamidine] | ≥ 80% | ≥ 80% | ≥ 80% |
| CCN(C)/C=N/c1cc(OC)c(C(O)(COCc2ccc3ccccc3c2)C(F)(F)F)cc1C (stereo not drawn) [E.009, N-ethyl-N′-[5-methoxy-2-methyl-4-[2,2,2-trifluoro-1-hydroxy-1-(2-naphthylmethoxymethyl)ethyl]phenyl]-N-methyl-formamidine] | ≥ 80% | ≥ 80% | ≥ 80% |
| CCN(C)/C=N/c1cc(OC)c(C(O)(COC2CCC2)C(F)(F)F)cc1C (stereo not drawn) [E.025, N′-[4-[1-(cyclobutoxymethyl)-2,2,2-trifluoro-1-hydroxy-ethyl]-5-methoxy-2-methyl-phenyl]-N-ethyl-N-methyl-formamidine] | ≥ 80% | ≥ 80% | ≥ 80% |
| CCN(C)/C=N/c1cc(OC)c(C(O)(COCC2(CC)COC2)C(F)(F)F)cc1C (stereo not drawn) [E.034, N-ethyl-N′-[4-[1-[(3-ethyloxetan-3-yl)methoxymethyl]-2,2,2-trifluoro-1-hydroxy-ethyl]-5-methoxy-2-methyl-phenyl]-N-methyl-formamidine] | ≥ 80% | ≥ 80% | ≥ 80% |
| CCN(C)/C=N/c1cc(OC)c(C(O)(COC2CCC(C)(C)CC2)C(F)(F)F)cc1C (stereo not drawn) [E.038, N′-[4-[1-[(4,4-dimethylcyclohexoxy)methyl]-2,2,2-trifluoro-1-hydroxy-ethyl]-5-methoxy-2-methyl-phenyl]-N-ethyl-N-methyl-formamidine] | ≥ 80% | ≥ 80% | ≥ 80% |
| CCN(C)/C=N/c1cc(OC)c(C(O)(CS(=O)(=O)C(C)C)C(F)(F)F)cc1C (stereo not drawn) [E.063, N-ethyl-N′-[5-methoxy-2-methyl-4-[2,2,2-trifluoro-1-hydroxy-1-(isopropylsulfonylmethyl)ethyl]phenyl]-N-methyl-formamidine] | ≥ 80% | ≥ 80% | ≥ 80% |
| CCN(C)/C=N/c1cc(OC)c(C(O)(CSC)C(F)(F)F)cc1C (stereo not drawn) [E.070, N-ethyl-N′-[5-methoxy-2-methyl-4-[2,2,2-trifluoro-1-hydroxy-1-(methylsulfanylmethyl)ethyl]phenyl]-N-methyl-formamidine] | ≥ 80% | ≥ 80% |  |
| CCN(C)/C=N/c1cc(OC)c(C(O)(CSC(C)C)C(F)(F)F)cc1C (stereo not drawn) [E.071, N-ethyl-N′-[5-methoxy-2-methyl-4-[2,2,2-trifluoro-1-hydroxy-1-(isopropylsulfanylmethyl)ethyl]phenyl]-N-methyl-formamidine] | ≥ 80% | ≥ 80% |  |
